Results as given in patent publication US10689378B2, “Triazolopyridine compounds and uses thereof” (Novartis AG, priority 2016, dated 2020).
pIC50: −log10 of the molar value.

Columns and labels:
EED (1-441)-His protein = target: T1, EED (1-441)-His protein (Homo sapiens, UniProt O75530); assay: EED-H3K27Me3 peptide competition binding assay by AlphaScreen; details: read-out: (a) IC50, EED Alphascreen binding Qualified
T1 construct: 30 nM EED (1-441)-His protein
Procedure: EED-H3K27Me3 Peptide Competition Binding Assay by AlphaScreen (α-Screen)
To assess the compounds' potency in the EED-H3K27Me3 competition binding assay, compounds were serially diluted 3-fold in DMSO to obtain a total of twelve concentrations. Then compounds at each concentration (75 nL of each) were transferred by Mosquito into a 384-well Perkin Elmer ProxiPlate 384 plus plates. 8 uL of solutions containing 30 nM EED (1-441)-His protein and 15 nM biotin-H3K27Me3 (19-33) peptide in the buffer (25 mM HEPES, pH 8, 0.02% Tween-20, 0.5% BSA) were added to the wells and then incubated with compound for 20 min. AlphaScreen detection beads mix was prepared immediately before use by mixing nickel chelate acceptor beads and streptavidin donor beads in a 1:1 ratio (Perkin Elmer, Product No. 6760619C/M/R) into the buffer described above. Then 4 μL of detection beads mix was added to the plate and incubate in the dark at the rt for 1 h. The final concentration of donor and acceptor beads was 10 μg/mL for each. Plates were read on EnVision (PerkinElmer) using the AlphaScreen setting adapted for optimal signal detection with a 615 nm filter, after sample excitation at 680 nm. The emission signal at 615 nm was used to quantify compounds inhibition. AlphaScreen signals were normalized based on the reading coming from the positive (maximum signal control) and negative controls (minimum signal control) to give percentage of activities left. The data were then fit to a dose response equation using the program Helios (Novartis) to get the IC50 values. Helios is a Novartis in-house assay data analysis software using the methods described by Normolle, D. P., Statistics in Medicine, 12:2025-2042 (1993); Formenko, I. et al, Computer Methods and Programs in Biomedicine, 82, 31-37 (2006); Sebaugh, J. L., Pharmaceutical Statistics, 10:128-134 (2011); Kelly, C. et al., Biometrics, 46(4):1071-1085 (1990); and Kahm, M. et al., Journal of Statistical Software, 33 (7): (2010) (grofit: Fitting Biological Growth Curves with R, pages 1-21, available at http://www.jstatsoft.org/).

[1] = test system: H3K27 methylation in G401 cell; assay: ELISA (H3K27 methylation) assay in G401 cells; assay type: cell-based, human; details: Homo sapiens, G-401, read-out: (c) IC50, ELISA Qualified
Procedure: Compounds of the present invention were assessed for their ability to inhibit PRC2 activity in a pentameric complex of EZH2, SUZ12, EED, Rbap48 and AEBP in biochemical assays. The ability of compounds of the present invention to inhibit cellular activity of PRC2 was assessed by analysing histone H3 lysine 27 methylation in human cell lines. The ability of compounds of the present invention to inhibit cancers was derived from their ability to modulate activity in human cancer cell lines bearing specific dependence to PRC2 activity to maintain cancerous growth.
ELISA (H3K27 Methylation) Assay
Representative compounds of the present invention were serially and separately diluted 3-fold in DMSO to obtain a total of eight or twelve concentrations. Then the compounds were added to G401 cell cultured in 384-well plate at 1:500 dilution to obtain the highest concentration of 20 μM. The cells were further cultured for 48 h before ELISA procedure.
Histone extraction: Cells, in 384-well plate, were washed with PBS (10×PBS buffer (80 g NaCl (Sigma, S3014), 2 g KCl (Sigma, 60128), 14.4 g Na2HPO4 (Sigma, S5136), 2.4 g KH2PO4 (Sigma, P9791) to 1 L water, pH to 7.4) and lysed with the addition of lysis buffer (0.4N HCl; 45 μL per well). The plate was gently agitated at 4° C. for 30 min. The cell lysate was neutralized with neutralization buffer (0.5 M sodium phosphate dibasic, pH 12.5, 1 mM DTT; 36 μL per well). The plate was agitated to ensure the lysates were well mixed prior to the ELISA protocol.
ELISA protocol: Cell lysates were transferred to the wells of a 384-well plate and the final volume was adjusted to 50 μL per well with PBS. The plate was sealed, centrifuged at 2,000 rpm for 2 min and incubated at 4° C. for about 16 h. The plate was washed with TBST buffer (1×TBS (10×TBS: 24.2 g Tris (Sigma, T6066), 80 g NaCl (Sigma, S3014) to 1 L of water and adjust pH to 7.6 with HCl) with 0.1% Tween-20). Blocking buffer (TBST, 5% BSA; 50 μL per well) was added and the plate was incubated for 1 h at rt. The blocking buffer was removed and primary antibody was added (30 μL per well). The following dilutions were performed with blocking buffer: for anti-H3K27me3 antibody (Cell Signaling Technology, #9733), dilution was 1:1000; for anti-H3K27me2 antibody (Cell Signaling Technology, #9288), dilution was 1:100; for anti-H3 antibody (Abcam, Cat #24834), dilution was 1:1000. The primary antibody was incubated in the plate at rt for 1 h. The wells were washed with TBST and incubated with secondary antibody for 1 h at rt. For secondary antibodies, the following dilutions were carried out with blocking buffer: anti-rabbit antibody (Jackson ImmunoResearch, #111-035-003), dilution was 1:2000; and anti-mouse antibody (Cell signaling technology, #7076), dilution was 1:1000. After 1 h of incubation at rt, the wells were washed with TBST. ECL substrate (Pierce, #34080) was added at 30 μL per well and the plates were centrifuged at 2,000 rpm for 2 min. The signal was read using a PerkinElmer Envision Reader. The H3K27 methylation readouts were normalized using H3 signal and then percentage inhibition was calculated against the samples treated with DMSO. The data were then fit to a dose response curve using the program Helios to get the IC50 values of the test compound.

T1 sequence (O75530 whole entry): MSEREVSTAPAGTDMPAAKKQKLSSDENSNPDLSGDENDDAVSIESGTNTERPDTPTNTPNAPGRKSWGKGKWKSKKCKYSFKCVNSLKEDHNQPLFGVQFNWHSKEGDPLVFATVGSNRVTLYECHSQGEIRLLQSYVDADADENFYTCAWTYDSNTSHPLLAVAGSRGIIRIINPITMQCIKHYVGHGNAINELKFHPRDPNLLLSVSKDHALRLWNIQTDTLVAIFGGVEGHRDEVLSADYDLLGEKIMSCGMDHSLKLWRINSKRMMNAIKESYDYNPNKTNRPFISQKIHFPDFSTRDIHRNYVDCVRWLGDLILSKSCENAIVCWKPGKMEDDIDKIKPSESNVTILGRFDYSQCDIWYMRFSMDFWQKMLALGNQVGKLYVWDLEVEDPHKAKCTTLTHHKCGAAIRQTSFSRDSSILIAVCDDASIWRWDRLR

Question: How did the pIC50 (EED (1-441)-His protein) turn out when `COc1cc(F)ccc1CNc1ccc(-c2ccc(S(=O)(=O)N(C)C)cc2)c2nncn12` [Example 84, 4-(5-((4-fluoro-2-methoxybenzyl)amino)-[1,2,4]triazolo[4,3-a]pyridin-8-yl)-N,N-dimethylbenzene sulfonamide] was run?
Answer: The pIC50 was 6.75.

Question: What about the pIC50 [1] of the same compound?
Answer: The pIC50 was 5.93.

Question: With `COc1cc(F)ccc1CNc1ccc(-c2ccc(NS(C)(=O)=O)cc2)c2nncn12` [Example 85, N-(4-(5-((4-fluoro-2-methoxybenzyl)amino)-[1,2,4]triazolo[4,3-a]pyridin-8-yl)phenyl)methane sulfonamide] as the compound, how does the pIC50 (EED (1-441)-His protein) read?
Answer: The pIC50 was 6.73.

Question: What about the pIC50 [1] of the same compound?
Answer: The pIC50 was 5.99.

Question: How did the pIC50 (EED (1-441)-His protein) turn out when `COc1c(F)cccc1CNc1ccc(-c2ccc(CN(C)C)cc2)c2nncn12` [Example 86, 8-(4-((dimethylamino)methyl)phenyl)-N-(3-fluoro-2-methoxybenzyl)-[1,2,4] triazolo[4,3-a]pyridin-5-amine] was run?
Answer: Its pIC50 is 6.66.

Question: What about the pIC50 [1] of the same compound?
Answer: Its pIC50 is 6.28.

Question: Which results are given for `COc1cc(F)ccc1CNc1ccc(-c2ccc(N3CCN(C(C)C)CC3)nc2)c2nncn12` [Example 88, N-(4-fluoro-2-methoxybenzyl)-8-(6-(4-isopropylpiperazin-1-yl)pyridin-3-yl)-[1,2,4] triazolo[4,3-a]pyridin-5-amine]?
Answer: pIC50 (EED (1-441)-His protein): 6.75; pIC50 [1]: 6.30

Question: With `COc1cc(F)ccc1CNc1ccc(-c2ccc(S(N)(=O)=O)cc2)c2nncn12` [Example 89, 4-(5-((4-fluoro-2-methoxybenzyl)amino)-[1,2,4]triazolo[4,3-a]pyridin-8-yl)benzenesulfonamide] as the compound, how does the pIC50 (EED (1-441)-His protein) read?
Answer: The pIC50 was 6.88.

Question: And the pIC50 [1]?
Answer: The pIC50 was 5.83.

Question: `COc1cc(F)ccc1CNc1ccc(-c2cnc(N3CCN(C(C)C)CC3)c(C(F)(F)F)c2)c2nncn12` [Example 90, N-(4-fluoro-2-methoxybenzyl)-8-(6-(4-isopropylpiperazin-1-yl)-5-(trifluoromethyl)pyridin-3-yl)-[1,2,4]triazolo[4,3-a] pyridin-5-amine] was tested. Which pIC50 (EED (1-441)-His protein) did it give?
Answer: The pIC50 was 6.39.

Question: And the pIC50 [1]?
Answer: Its pIC50 is 5.67.

Question: With `COc1cc(F)ccc1CNc1ccc(-c2ccncc2)c2nncn12` [Example 92, N-(4-fluoro-2-methoxybenzyl)-8-(pyridin-4-yl)-[1,2,4]triazolo[4,3-a]pyridin-5-amine] as the compound, how does the pIC50 (EED (1-441)-His protein) read?
Answer: The pIC50 was 6.86.

Question: And the pIC50 [1]?
Answer: The pIC50 was 6.52.

Question: `COc1cc(F)ccc1CNc1ccc(-c2cccnc2)c2nncn12` [Example 93, N-(4-fluoro-2-methoxybenzyl)-8-(pyridin-3-yl)-[1,2,4]triazolo[4,3-a]pyridin-5-amine] was tested. Which pIC50 (EED (1-441)-His protein) did it give?
Answer: The pIC50 was 6.79.

Question: What about the pIC50 [1] of the same compound?
Answer: The pIC50 was 6.40.

Question: With `COc1ccccc1CNc1ccc(-c2cncc(S(C)(=O)=O)c2)c2nncn12` [Example 95, N-(2-methoxybenzyl)-8-(5-(methylsulfonyl)pyridin-3-yl)-[1,2,4]triazolo[4,3-a] pyridin-5-amine] as the compound, how does the pIC50 (EED (1-441)-His protein) read?
Answer: The pIC50 was 6.75.

Question: And the pIC50 [1]?
Answer: Its pIC50 is 6.79.

Question: How did the pIC50 (EED (1-441)-His protein) turn out when `COc1cc(F)ccc1CNc1ccc(-c2ccc(C(=O)N3CCCC3)cc2)c2nncn12` [Example 96, (4-(5-((4-fluoro-2-methoxy benzyl)amino)-[1,2,4]triazolo[4,3-a]pyridin-8-yl)phenyl)(pyrrolidin-1-yl) methanone] was run?
Answer: The pIC50 was 6.98.

Question: What about the pIC50 [1] of the same compound?
Answer: Its pIC50 is 6.60.

Question: With `COc1cc(F)ccc1CNc1ccc(-c2cnc(N3CCN(C(C)C)CC3)c(Cl)c2)c2nncn12` [Example 97, 8-(5-chloro-6-(4-isopropylpiperazin-1-yl)pyridin-3-yl)-N-(4-fluoro-2-methoxybenzyl)-[1,2,4]triazolo[4,3-a] pyridin-5-amine] as the compound, how does the pIC50 (EED (1-441)-His protein) read?
Answer: Its pIC50 is 6.98.

Question: What about the pIC50 [1] of the same compound?
Answer: Its pIC50 is 6.11.

Question: `COc1cc(CNc2ccc(-c3ccc(CN(C)C)cc3)c3nncn23)c(F)cc1F` [Example 98, N-(2,4-difluoro-5-methoxybenzyl)-8-(4-((dimethylamino)methyl)phenyl)-[1,2,4]triazolo[4,3-a] pyridin-5-amine] was tested. Which pIC50 (EED (1-441)-His protein) did it give?
Answer: Its pIC50 is 6.44.

Question: And the pIC50 [1]?
Answer: The pIC50 was 6.54.

Question: How did the pIC50 (EED (1-441)-His protein) turn out when `COc1ccc(F)c(CNc2ccc(-c3ccncc3)c3nncn23)c1` [Example 99, N-(2-fluoro-5-methoxybenzyl)-8-(pyridin-4-yl)-[1,2,4]triazolo[4,3-a] pyridin-5-amine] was run?
Answer: The pIC50 was 6.59.

Question: And the pIC50 [1]?
Answer: Its pIC50 is 6.41.

Question: How did the pIC50 (EED (1-441)-His protein) turn out when `COc1cc(F)c(F)cc1CNc1ccc(-c2ccc(CN(C)C)cc2)c2nncn12` [Example 103, N-(4,5-difluoro-2-methoxybenzyl)-8-(4-((dimethylamino)methyl)phenyl)-[1,2,4]triazolo[4,3-a] pyridin-5-amine] was run?
Answer: Its pIC50 is 5.54.

Question: And the pIC50 [1]?
Answer: Its pIC50 is 5.09.

Question: How did the pIC50 (EED (1-441)-His protein) turn out when `COc1cc(F)ccc1CNc1ccc(-c2cnc(N3CCN(C(C)C)CC3)nc2)c2nncn12` [Example 104, N-(4-fluoro-2-methoxybenzyl)-8-(2-(4-isopropylpiperazin-1-yl)pyrimidin-5-yl)-[1,2,4]triazolo[4,3-a] pyridin-5-amine] was run?
Answer: Its pIC50 is 6.80.

Question: What about the pIC50 [1] of the same compound?
Answer: Its pIC50 is 6.88.

Question: With `COc1ccccc1CNc1ccc(-c2c(C)nn(C)c2C)c2nncn12` [Example 110, N-(2-methoxybenzyl)-8-(1,3,5-trimethyl-1H-pyrazol-4-yl)-[1,2,4]triazolo[4,3-a] pyridin-5-amine] as the compound, how does the pIC50 (EED (1-441)-His protein) read?
Answer: The pIC50 was 6.90.

Question: And the pIC50 [1]?
Answer: Its pIC50 is 7.13.

Question: With `COc1ccc(F)cc1CNc1ccc(-c2ccc(S(C)(=O)=O)nc2)c2nncn12` [Example 115, N-(5-fluoro-2-methoxybenzyl)-8-(6-(methylsulfonyl)pyridin-3-yl)-[1,2,4]triazolo[4,3-a] pyridin-5-amine] as the compound, how does the pIC50 (EED (1-441)-His protein) read?
Answer: Its pIC50 is 6.08.

Question: And the pIC50 [1]?
Answer: Its pIC50 is 6.16.

Question: With `COc1ccc(F)cc1CNc1ccc(-c2ccc(S(C)(=O)=O)cc2)c2nncn12` [Example 116, N-(5-fluoro-2-methoxybenzyl)-8-(4-(methylsulfonyl)phenyl)-[1,2,4]triazolo[4,3-a]pyridin-5-amine] as the compound, how does the pIC50 (EED (1-441)-His protein) read?
Answer: Its pIC50 is 6.56.

Question: And the pIC50 [1]?
Answer: The pIC50 was 6.13.

Question: How did the pIC50 (EED (1-441)-His protein) turn out when `COc1ccc(F)cc1CNc1ccc(-c2ccncc2)c2nncn12` [Example 117, N-(5-fluoro-2-methoxybenzyl)-8-(pyridin-4-yl)-[1,2,4]triazolo[4,3-a]pyridin-5-amine] was run?
Answer: The pIC50 was 6.07.

Question: And the pIC50 [1]?
Answer: The pIC50 was 6.05.

Question: With `COc1ccc(F)cc1CNc1ccc(-c2cccnc2)c2nncn12` [Example 118, N-(5-fluoro-2-methoxybenzyl)-8-(pyridin-3-yl)-[1,2,4]triazolo[4,3-a]pyridin-5-amine] as the compound, how does the pIC50 (EED (1-441)-His protein) read?
Answer: Its pIC50 is 5.90.

Question: What about the pIC50 [1] of the same compound?
Answer: Its pIC50 is 5.90.

Question: What does the source list for `COc1c(F)cccc1CNc1ccc(-c2ccc(S(C)(=O)=O)cc2)c2nncn12` [Example 119, N-(3-fluoro-2-methoxybenzyl)-8-(4-(methylsulfonyl)phenyl)-[1,2,4]triazolo[4,3-a]pyridin-5-amine]?
Answer: pIC50 (EED (1-441)-His protein): 6.17; pIC50 [1]: 5.29
